Test results as given in ChEMBL document CHEMBL1151803, “Melanin synthesis inhibitors from Lespedeza cyrtobotrya” (J Nat Prod, 2009).

Columns and labels:
[1] = Inhibition of melanin synthesis in NHEM after 24 hrs by liquid scintillation; format: functional, Homo sapiens
[2] = Cytotoxicity against NHEM cells assessed as cell viability 24 hrs by WST-8 assay; format: cell-based; settings: human

SMILES	IC50 ([1]; read-out: IC50) [µM]	IC50 [1]	Activity [2]
CC1(C)C=Cc2c(ccc(C(=O)CCc3ccc(O)cc3)c2O)O1	2		Non-toxic
Cc1c(O)cc2c(c1O)C(=O)[C@H](O)[C@@H](c1ccc(O)cc1)O2		Not Active	Non-toxic
CC(C)=CCc1cc([C@@H]2CC(=O)c3ccc(O)cc3O2)ccc1O [ABYSSINONE II]	2		Non-toxic
CC(C)=CCc1cc2c(cc1O)O[C@H](c1ccc(O)cc1)CC2=O [BAVACHIN]	18		Non-toxic
COc1c(O)ccc(-c2coc3cc(O)cc(O)c3c2=O)c1OC [BAVAISOFLAVANONE]	38.4		Non-toxic
CC(C)=CCc1c(O)ccc2c1O[C@H]1c3ccc(O)c(CC=C(C)C)c3OC[C@@H]21 [ERYBRAEDIN A]	2		Non-toxic
COc1c2c(cc3c1[C@@H]1Oc4ccc5c(c4[C@@H]1CO3)C=CC(C)(C)O5)OC(C)(C)C=C2 [GANGETININ]	4.6		Non-toxic
Oc1ccc(O)cc1 [HYDROQUINONE]	103		
CC(C)=CCc1c(O)cc(O)c2c1O[C@H](c1ccc(O)cc1O)CC2=O [LEACHIANONE G]		Not Active	Non-toxic
CC(C)=CCc1c(O)ccc2c1O[C@H](c1ccc(O)cc1)[C@@H](O)C2=O [LESPECYRTIN A1]		Not Active	Non-toxic
C=C(C)C1Cc2c(ccc(C(=O)/C=C/c3ccc(O)cc3)c2O)O1 (stereo not drawn) [LESPECYRTIN B1]	1.3		Non-toxic
C=C(C)C1Cc2c(ccc(C(=O)CCc3ccc(O)cc3)c2O)O1 (stereo not drawn) [LESPECYRTIN C1]	3		Non-toxic
CC1(C)C=Cc2cc3c(cc2O1)OC[C@H]1c2ccc4c(c2O[C@@H]31)C=CC(C)(C)O4 [LESPECYRTIN E1]			Non-toxic
CC(C)=CCc1c(O)c2c(c3c1[C@@H]1COc4cc5c(cc4[C@@H]1O3)C=CC(C)(C)O5)C=CC(C)(C)O2 [LESPECYRTIN E2]	3.7		Non-toxic
CC(C)=CCc1c(O)c(C)cc2c1O[C@H]1c3cc4c(cc3OC[C@@H]21)OC(C)(C)C=C4 [LESPECYRTIN E5]	1.5		Non-toxic
CC(C)=CCc1c(O)ccc2c1O[C@H]1c3cc(CCC(C)(C)O)c(O)cc3OC[C@@H]21 [LESPECYRTIN E6]	3.4		Non-toxic
COc1cc2c(cc1O)O[C@H]1c3cc4c(cc3OC[C@@H]21)OC(C)(C)[C@H](O)C4 [LESPECYRTIN E7]	16		Non-toxic
CC(C)=CCc1c(O)c(O)cc2c3c(oc12)-c1ccc(O)cc1OC3 [LESPECYRTIN F1]		Not Active	Non-toxic
CC(C)=CCC1=C(O)C(Cc2c(-c3cc(CC=C(C)C)c(O)cc3O)oc3c(CC=C(C)C)c(O)c(O)cc23)=C[C@@H]2c3c(c4cc(CC=C(C)C)c(O)cc4oc3=O)O[C@H]12 [LESPECYRTIN H1]	8.9		Non-toxic
CC(C)=CCC1=C(O)C(C(=O)c2c(-c3cc(CC=C(C)C)c(O)cc3O)oc3c4c(c(O)cc23)OC(C)(C)C=C4)=C[C@@H]2c3c(c4cc(CC=C(C)C)c(O)cc4oc3=O)O[C@H]12 [LESPECYRTIN H4]	6.2		Non-toxic
CC(C)=CCc1cc(-c2oc3c(CC=C(C)C)c(O)c(O)cc3c2C(=O)c2cc3c(c(CC=C(C)C)c2O)O[C@H]2c4cc(CC=C(C)C)c(O)cc4OC[C@@H]32)c(O)cc1O [LESPEFLORIN J3]			Non-toxic
O=C1C[C@@H](c2ccc(O)cc2)Oc2cc(O)cc(O)c21 [NARINGENIN]	73.5		Non-toxic
CC(C)=CCc1cc(-c2coc3cc(O)ccc3c2=O)ccc1O [NEOBAVAISOFLAVONE]	9.4		Non-toxic
CC(C)=CCc1c(O)ccc2c1O[C@H]1c3ccc(O)cc3OC[C@@H]21 [PHASEOLLIDIN]	8.7		Non-toxic

Now from value to compound, other results behind:

IC50 ([1]; read-out: IC50) [µM]	IC50 [1]	SMILES	Activity [2]
	Not Active	Cc1c(O)cc2occ(-c3ccc(O)cc3)c(=O)c2c1O	Non-toxic
2.2		OC[C@H]1O[C@@H](Oc2ccc(O)cc2)[C@H](O)[C@@H](O)[C@@H]1O [ARBUTIN]	
5.5		CC(C)=CCc1cc2c(cc1O)OC[C@H]1c3ccc(O)c(CC=C(C)C)c3O[C@@H]21 [ERYBRAEDIN C]	Non-toxic
29.2		O=c1c(-c2ccc(O)cc2)coc2cc(O)cc(O)c12 [GENISTEIN]	Non-toxic
1.4		CC(C)=CCc1c(O)ccc(C(=O)/C=C/c2ccc(O)cc2)c1O [ISOBAVACHALCONE]	Non-toxic
1		CC1(C)C=Cc2c(O)ccc(C(=O)/C=C/c3ccc(O)cc3)c2O1 [LESPECYRTIN B2]	Non-toxic
9.1		CC(C)(O)C1Cc2c(O)ccc(C(=O)/C=C/c3ccc(O)cc3)c2O1 (stereo not drawn) [LESPECYRTIN B3]	Non-toxic
2.1		COc1cc([C@@H]2COc3cc(O)c(CC=C(C)C)cc3C2)c(O)cc1O [LESPECYRTIN D1]	Non-toxic
0.4		CC(C)=CCc1cc2c(cc1O)OC[C@H]1c3c4c(c(O)c(CC=C(C)C)c3O[C@@H]21)OC(C)(C)C=C4 [LESPECYRTIN E3]	Non-toxic
4.5		CC(C)=CCc1c(O)c2c(c3c1O[C@H]1c4cc5c(cc4OC[C@@H]31)OC(C)(C)C=C5)C=CC(C)(C)O2 [LESPECYRTIN E4]	Non-toxic
15.9		CC(C)=CCc1cc2c(cc1O)OCc1c-2oc2c(CC=C(C)C)c(O)c(O)cc12 [LESPECYRTIN F2]	Non-toxic
	Not Active	CC(C)=CCc1c(O)c(O)cc2c1oc1c3ccc(O)cc3oc(=O)c21 [LESPECYRTIN G1]	Non-toxic
	Not Active	CC(C)=CCC1=C(O)C(C(=O)c2c(-c3cc(CC=C(C)C)c(O)cc3O)oc3c(CC=C(C)C)c(O)c(O)cc23)=C[C@@H]2c3c(c4cc(CC=C(C)C)c(O)cc4oc3=O)O[C@H]12 [LESPECYRTIN H2]	Non-toxic
10.1		CC(C)=CCC1=C(O)C(C(=O)c2c(-c3cc4c(cc3O)OC(C)(C)C=C4)oc3c(CC=C(C)C)c(O)c(O)cc23)=C[C@@H]2c3c(c4cc(CC=C(C)C)c(O)cc4oc3=O)O[C@H]12 [LESPECYRTIN H3]	Non-toxic
3.2		CC(C)=CCc1cc2c(cc1O)OC[C@H]1c3cc(C)c(O)c(CC=C(C)C)c3O[C@@H]21 [LESPEFLORIN G4]	Non-toxic
25.7		CC(C)=CCc1cc2c(cc1O)oc(=O)c1c3cc(O)c(O)c(CC=C(C)C)c3oc21 [LESPEFLORIN I2]	Non-toxic
2.4		CC(C)=CCCC1(C)C=Cc2c(ccc(C(=O)/C=C/c3ccc(O)cc3)c2O)O1 (stereo not drawn) [LESPEOL]	Non-toxic
3.2		CC(C)=CCc1cc(/C=C/C(=O)c2ccc(O)cc2O)ccc1O [LICOAGROCHALCONE A]	Non-toxic
14.7		O=C1C[C@@H](c2ccc(O)cc2)Oc2cc(O)ccc21 [LIQUIRTIGENIN]	Non-toxic
7.5		CC1(C)C=Cc2c(ccc3c2O[C@H]2c4ccc(O)cc4OC[C@@H]32)O1 [PHASEOLIN]	Non-toxic
5.4		CC(C)=CCc1c(O)cc2occ(-c3ccc(O)cc3O)c(=O)c2c1O [UNCINANONE A]	Non-toxic
0.98		CC(C)=CCC/C(C)=C/Cc1c(O)ccc(C(=O)/C=C/c2ccc(O)cc2)c1O [XANTHOANGELOL]	Non-toxic
